Here are results for one compound from paper PMC3806465, “Discovery and Evaluation of Thiazinoquinones as Anti-Protozoal Agents” (Marine Drugs, 2013).

pIC50: −log10 of the molar value.

Usually pIC50 stands for the negative decadic logarithm of the IC50, by convention in mol/L.

Series [1] deals with Trypanosoma brucei rhodesiense, STIB 900 strain, trypomastigotes stage. The series is described as follows: In vitro activity against T. b. rhodesiense. It is filed as cell-based. The note with it: Trypanosoma brucei; STIB 900, trypomastigotes; average of two independent assays; read-out: IC50 T. b. rhod. How it is done: (§1) The in vitro activities against the protozoan parasites T.b. rhodesiense, T. cruzi, L. donovani, and P. falciparum and cytotoxicity assessment against L6 cells were determined as reported elsewhere.

The test system of series [2] is Trypanosoma cruzi, Tulahuen C4 strain, amastigotes stage. The series is described as follows: In vitro activity against T. cruzi. It counts as cell-based. As to conditions: Trypanosoma cruzi, TULAHUEN, Tulahuen C4, amastigotes; average of two independent assays; read-out: IC50 T. cruzi. The method, then:
as §1

Series [3] has as its system Leishmania donovani, MHOM-ET-67/L82 strain, amastigote/axenic stage. The series is described as follows: In vitro activity against L. donovani. The note with it: Leishmania donovani, MHOM-ET-67/L82, axenic amastigotes; average of two independent assays; read-out: IC50 L. don. It is filed as cell-based. The method, then: as §1
The test system of series [4] is Plasmodium falciparum, K1 strain, IEF stage. The series is described as follows: In vitro activity against P. falciparum K1. It counts as cell-based. The method, then:
as §1

Series [5] has as its system L6 rat skeletal myoblast cell line. The series is described as follows: Cytotoxicity against L6 cells. It counts as cell-based. As to conditions: Rattus norvegicus, Myoblast, cytotoxicity, L6 rat skeletal myoblasts; average of two independent assays; read-out: IC50 L6. How it is done:
as §1

The test system of series [6] is GFP-transfected P. berghei strain ANKA. As to the kind of experiment: In vivo anti-malarial efficacy in P. berghei infected mice. On the set-up: species or system NMRI mice. The method, then: Furan carboxylic acid analogue 16 was selected for preliminary proof-of-principle in vivo evaluation in Plasmodium berghei infected mice. […] Switching to an oral dosing experiment (100 mg/kg once per day for 4 days) yielded a 47% reduction of parasitaemia. Although not considered significant, these levels of activity for both ip and po dosing clearly identifies heterocyclic dioxothiazinoquinone carboxylic acids to be a novel anti-malarial drug scaffold warranting further structure-activity relationship studies.
In vivo anti-malarial activity was assessed as previously described. Groups of three female NMRI mice (20–22 g) were intravenously infected with 2 × 10^7 parasitized erythrocytes on day 0 with GFP-transfected P. berghei strain ANKA [24]. Compounds were formulated in 100% DMSO, diluted 10-fold in distilled water and administered intraperitoneally in a volume of 10 ml kg^−1 on four consecutive days (4, 24, 48 and 72 h post infection). Control experiments used DMSO-H2O vehicle alone. Parasitemia was determined on day 4 post infection (24 h after last treatment) by FACS analysis. Activity was calculated as the difference between the mean per cent parasitaemia for the control (n = 5 mice) and treated groups expressed as a per cent relative to the control group. The survival of the animals was usually monitored up to 30 days: a compound was considered curative if the animal survived to day 30 after infection with no detectable parasites. In vivo efficacy studies in mice were conducted according to the rules and regulations for the protection of animal rights (“Tierschutzverordnung”) of the Swiss “Bundesamt für Veterinärwesen”. They were approved by the veterinary office of Canton Basel-Stadt, Switzerland.

The conditions of series [7]: in vivo, 150 mg/kg.

For the compound `O=C(O)c1cc2c(o1)C(=O)C1=C(C2=O)S(=O)(=O)CCN1` [Compound 16, 5,9-Dioxo-3,4,5,9-tetrahydro-2H-benzofuro[5,6-b][1,4]thiazine-7-carboxylic Acid 1,1-Dioxide], the pIC50 in series [1] was 5.12; in series [2] it was below 3.52; in series [3], below 3.52; in series [4] (Plasmodium falciparum, K1 dual drug resistant strain, IEF stage, average of two independent assays, read-out: IC50 P. falc. K1), 6.92; in series [5], 3.54. For the same compound, the “SI Pf” value in series [4] (Selectivity index for P. falciparum = IC50 L6/IC50 Pf) is recorded as 2400. The same compound registered a reduction in parasitaemia in series [6] (ip 50 (mg/kg)/day for four days) of 85.7%. Besides, the mean survival time in series [6] (ip 50 (mg/kg)/day for four days, untreated control 4–6 days) came to 9.6 days. Also, the reduction of parasitaemia in series [6] (oral 100 mg/kg once per day for 4 days) was found to be 47%. Also, the ip acute toxicity entry in series [7] was “no toxicity”.
